In US7132455B2, “Phthalamide derivatives” (Bayer Cropscience AG, priority 2002, dated 2006):

Key:
[1] = system: larva of Spodoptera litura; experiment: Test against larva of Spodoptera litura (leaf dip, sweet potato leaves); type: in vivo; conditions: 20 ppm concentration of effective component; third instar larvae on treated sweet potato leaves; after 7 days; 25° C.
Procedure: Test against larva of Spodoptera litura
In order to make an appropriate formulation of an active compound 1 part by weight of the active compound was mixed with the above-mentioned amount of solvent containing the above-mentioned amount of emulsifier and the mixture was diluted with water to a prescribed concentration.
Leaves of sweet potato were soaked in the test agent diluted to a prescribed concentration with water, dried in the air and put in a dish of 9 cm diameter. 10 larvae of Spodoptera litura at the third instar were placed on the leaves and kept in a room at constant temperature of 25° C. After 2 and 4 days further leaves of sweet potato were added and after 7 days the number of dead larvae was counted and the rate of death was calculated.
In this test the results of 2 dishes at 1 section were averaged.

[2] = system: larva of Cnaphalocrocis medinalis Guenee; experiment: Test against larva of Cnaphalocrocis medinalis Guenee (systemic, root uptake by paddy rice); type: in vivo; conditions: 20 ppm concentration of effective component; rice root parts in diluted solution, foliage fed to second instar larvae; after 7 days; 25° C.
From the text: Test Against Larva of Cnaphalocrocis medinalis Guenee Root parts of paddy rice (variety: […]) cultivated to 4 to 5 leaf stage were put in a brown bottle filled with the diluted aqueous solution of the prescribed concentration of the active compound prepared in the same manner as in the above-mentioned Biological Test Example 1. Three days after the treatment with the agent, 1⁄3 amount of rice plant was collected and their foliage part was cut in 4 to 5 cm length, which were put in a dish with 9 cm diameter with a sheet of filter paper wetted with 2 mL of water. Five larvae of Cnaphalocrocis medinalis Guenee at the second instar were put in the dish which was placed in a room at constant temperature of 25° C. After 2 and 4 days, each rest (each 1⁄3 amount) of foliage parts of rice plant were cut in the same manner and added to the dish. After 7 days the number of dead larvae was counted and the rate of death was calculated. In this test the results of 2 dishes at 1 section were averaged.

Row | SMILES | rate of death [1] [%] | rate of death [2] [%]
1 | CSCC(C)NC(=O)c1c(OS(C)(=O)=O)cccc1C(=O)Nc1ccc(C(F)(C(F)(F)F)C(F)(F)F)cc1C (centres unmarked) [compound 7, N^1-(4-heptafluoroisopropyl-2-methylphenyl)-N^2-[1-methyl-2-(methylthio)-ethyl]-3-methanesulfonyloxyphthalamide] | 100 | 100
2 | CSCC(C)NC(=O)c1c(OS(C)(=O)=O)cccc1C(=O)Nc1ccc(OC(F)(F)F)cc1C (centres unmarked) [compound 6, N^2-[1-methyl-2-(methylthio)ethyl]-N^1-(4-trifluoromethoxy-2-methylphenyl)-3-methanesulfonyloxyphthalamide] | 100 | 
3 | CCS(=O)(=O)Oc1cccc(C(=O)Nc2ccc(C(F)(C(F)(F)F)C(F)(F)F)cc2C)c1C(=O)NC(C)(C)CSC [compound 17, N^2-[1,1-dimethyl-2-(methylthio)ethyl]-N^1-(4-heptafluoroisopropyl-2-methylphenyl)-3-ethanesulfonyloxyphthalamide] | 100 | 
4 | CSCC(C)(C)NC(=O)c1c(OS(C)(=O)=O)cccc1C(=O)Nc1ccc(Cl)c(Cl)c1Cl [compound 24, N^2-[1,1-dimethyl-2-(methylthio)ethyl]-N^1-(2,3,4-trichlorophenyl)-3-methanesulfonyloxyphthalamide] | 100 | 
5 | CCS(=O)(=O)Oc1cccc(C(=O)Nc2ccc(C(F)(C(F)(F)F)C(F)(F)F)cc2C)c1C(=O)NC(C)CSC (centres unmarked) [compound 14, N^1-(4-heptafluoroisopropyl-2-methylphenyl)-N^2-[1-methyl-2-(methylthio)ethyl]-3-ethanesulfonyloxyphthalamide] | 100 | 
6 | CSCC(C)NC(=O)c1c(OS(=O)(=O)C(F)(F)F)cccc1C(=O)Nc1ccc(C(F)(C(F)(F)F)C(F)(F)F)cc1C (centres unmarked) [compound 21, N^1-(4-heptafluoroisopropyl-2-methylphenyl)-N^2-[1-methyl-2-(methylthio)ethyl]-3-trifluoromethanesulfonyloxyphthalamide] | 100 | 
7 | Cc1cc(C(F)(C(F)(F)F)C(F)(F)F)ccc1NC(=O)c1cccc(OS(C)(=O)=O)c1C(=O)NC(C)(C)CS(C)(=O)=O [compound 12, N^2-[1,1-dimethyl-2-(methylsulfonyl)ethyl]-N^1-(4-heptafluoroisopropyl-2-methylphenyl)-3-methanesulfonyloxyphthalamide] | 100 | 100
8 | CSCC(C)NC(=O)c1c(OS(C)(=O)=O)cccc1C(=O)Nc1ccc(C(F)(C(F)(F)F)C(F)(F)F)cc1 (centres unmarked) [compound 5, N^1-(4-heptafluoroisopropylphenyl)-N^2-[1-methyl-2-(methylthio)ethyl]-3-methanesulfonyloxyphthalamide] | 100 | 100
9 | Cc1cc(C(F)(C(F)(F)F)C(F)(F)F)ccc1NC(=O)c1cccc(OS(C)(=O)=O)c1C(=O)NC(C)(C)C[S+](C)[O-] (centres unmarked) [compound 11, N^2-[1,1-dimethyl-2-(methylsulfinyl)ethyl]-N^1-(4-heptafluoroisopropyl-2-methylphenyl)-3-methanesulfonyloxyphthalamide] | 100 | 100
10 | Cc1cc(C(F)(C(F)(F)F)C(F)(F)F)ccc1NC(=O)c1cccc(OS(C)(=O)=O)c1C(=O)NC(C)C [compound no. 1, N^1(4-heptafluoroisopropyl-2-methylphenyl)-N-2-isopropyl-3-methanesulfonyloxyphthalamide] | 100 | 100
11 | CSCC(C)(C)NC(=O)c1c(OS(C)(=O)=O)cccc1C(=O)Nc1ccc(C(F)(C(F)(F)F)C(F)(F)F)cc1C [compound 10, N^2-[1,1-dimethyl-2-(methylthio)ethyl]-N^1-(4-heptafluoroisopropyl-2-methylphenyl)-3-methanesulfonyloxyphthalamide] | 100 | 100
